From US20170112787A1, “METHODS OF TREATMENT OF INFLAMMATION OF THE GUT” (THE UNIVERSITY OF CONNECTICUT, priority 2015, published 2017)

Columns and labels:
[1] = test system: siLP CX3CR1hi Mφ; assay: Oral gavage; frequency of siLP CX3CR1hi Mφ and CX3CR1lo cells by flow cytometry; format: in vivo, mouse
Description: Mice: C57BL/6, NOD/Lt, VR1^−/− (also known as TRPV1^−/−), IL27RA^−/− (also known as WSX-1^−/−) and CX3CR1^gfp/gfp, were obtained from the Jackson Laboratory (Bar Harbor, Me.). IL10-GFP reporter (Vert-X) mice were a kind gift from Dr. Roger S Thrall. All animals except NOD/Lt were on a C57BL/6 background. CX3CR1^gfp/gfp were crossed with C57BL/6 mice to obtain CX3CR1^gfp/+ mice. CX3CR1^gfp/gfp mice were backcrossed with VR1^−/− to obtain CX3CR1^gfp/+ VR1^−/− mice. IL27RA^−/− mice were backcrossed with C57BL/6 mice to obtain IL27RA^+/− mice. All animals were housed in the Center for Comparative Medicine at UConn Health. All experiments were conducted under the guidelines approved by the UConn Health Animal Care Committee.
(§1) Cell isolation: The siLP cells were isolated as per protocols known in the art. In brief, small intestines were removed from the mice, luminal contents were flushed with cold HBSS (Invitrogen, Carlsbad, Calif., USA) with 5% FBS, opened longitudinally after removing Peyer's patches and cut in to small pieces. The epithelial cells were removed by incubation with HBSS containing 1.3 mM EDTA (Invitrogen, Carlsbad, Calif., USA), 1mM HEPES (Invitrogen, Carlsbad, Calif., USA) and 0.77 mM DTT (Sigma, St. Louis, Mo., USA) at 37° C. shaking at 350 rpm. The intestinal pieces were then washed with PBS (Invitrogen, Carlsbad, Calif., USA) and digested in 100 units/ml collagenase IV (Sigma, St. Louis, Mo., USA) at 37° C. shaking at 550 rpm. Leukocytes were enriched using percoll (GE Healthcare, Piscataway, N.J., USA) gradient. The PLN, MLN and splenic cells were isolated by gently crushing the organs through 70 μm cell strainer (BD Falcon, Franklin, N.J., USA). Splenocytes were incubated with ACK lysing buffer (Invitrogen, N.Y., USA) to eliminate red blood cells for 3 mins at 37° C. and washed twice with PBS.
(§2) Flow cytometry: Fluorescently labeled antibodies used for surface staining included: CD11b (M1/70), CD11 c (N418), CX3CR1 (polyclonal), CD103 (2E7), CD64 (X54-5/7.1), MHCII (M5/114.15.2), B220 (RA3-6B2), CD3 (145-2C11), CD4 (RM4-5), CD25 (PC61) and CD62L (ME2-14) and those used for intracellular staining include: VR1 (polyclonal) IL10 (JESS-16E3), TNFα (MP6-XT22), IFNγ (XMG1.2), and IL17A (TC11-18H10.1). For detection of CB2, primary antibody against CB2 (polyclonal) was used followed by fluorescently labeled secondary antibody. All were purchased from Biolegend San Diego, Calif., USA except for TNFα (Becton Dickinson, San Jose, Calif., USA), CX3CR1 (R&D Minneapolis, Minn., USA), VR1 (Thermo Scientific, Rockford, Ill. USA), IL10 (eBioscience, San Diego Calif., USA) and CB2 (Thermo Scientific, Rockford, Ill. USA). Cells were acquired with a LSRII flow cytometer (Becton Dickinson, San Jose, Calif., USA) or sorted with a FACSAria™ machine (Becton Dickinson, San Jose, Calif., USA). Flow cytometry analysis was done with the FlowJo Version 9.7.6 (Tree Star, Ashland, Oreg,).
(§3) Oral administration of CP, AEA and PF3845: Mice were anesthetized with intraperitoneal injection of ketamine (2 mg/kg) and xylazine (0.1 mg/kg). Vehicle control (tween 80 (5%), […] in PBS) or CP (10 μg) (ENZO Life Sciences, Farmingdale, N.Y., USA) or AEA (250 μg, 400 μg or 500 μg) (Cayman Chemical Co., Ann Arbor, Mich., USA) or PF3845 (5 mg/kg) (Cayman Chemical Co., Ann Arbor, Mich., USA) were gavaged in 100 μl volume using an 18-gauge feeding needle (Popper & Sons, New Hyde Park, N.Y., USA).

[2] = test system: Type 1 Diabetes in NOD mice; assay: Adoptive transfer of CD4+ T cells from treated NOD donors; diabetes development by urine glucose; format: in vivo, mouse; settings: CD4+ T cells from PLN and spleen of treated female NOD donors, vs vehicle elicited cells
Protocol: Adoptive transfer: Female NOD mice were orally gavaged with CP 10 μg or vehicle at 9 and 10 weeks of age as described earlier. 2 weeks later CD4^+ T cells were sorted from the PLN and spleen of the treated mice. All recipient female NOD mice were sub-lethally irradiated. Four hours after irradiation the recipient mice received […] diabetogenic splenocytes. 7×10^6 sorted CD4^+ T cells were then transferred to naïve NOD female mice by retro-orbital injection at 11 weeks of age. Development of diabetes was monitored by measuring urine glucose using Diastix® reagent strips (Bayer, Elkhart, Ind., USA). Mice were considered diabetic after two consecutive readings of >1000 mg/dl of urine glucose.

[3] = test system: CX3CR1+ Mφ in PLN and MLN; assay: Oral gavage; frequency of CX3CR1+ Mφ in PLN and MLN by flow cytometry; format: in vivo, mouse
Protocol: as §1
as §2, with “Flow cytometry analysis was done with the FlowJo Version 9.7.6 (Tree Star, Ashland, Oreg,).” left out

[4] = test system: naïve splenic CD4+ T cells; assay: In vitro co-culture of siLP MNPs sorted from treated mice with naïve splenic CD4+ T cells; format: cell-based, mouse
Protocol: (§4) Intracellular cytokine staining: Cells were incubated with PMA (50 ng/ml) (Sigma Co., St. Luis, Mo., USA) plus ionomycin (1 μg/ml) (Sigma Co., St. Luis, Mo., USA) in the presence of golgi plug (BD Biosciences, San Jose, USA) for 5 hours at 37° C. followed by surface staining with fluorochrome conjugated antibodies and then intracellular staining of IL10, TNFα, IFNγ, and IL17A was performed by fixation and permeabilization according to manufacturer's protocol BD Cytofix/Cytoperm™ kit.
In vitro co-culture assays: For in vitro co-culture assays, siLP MNPs were sorted as described previously from C57BL/6 or CX3CR1^gfp/+ mice. MNPs (10×10^4) were cocultured for 4 days with splenic naïve CD25^− CD62L^hi CD4^±T cells sorted from untreated C57BL/6 or IL27Ra^−/− mice at 1:1 ratios in the presence of soluble αCD3 mAb (145-2C11) (0.5 μg/ml) in U-bottomed 96 well plates. The cultured cells were maintained in RPMI 1640 medium supplemented with 5% fetal bovine serum, 1 mM sodium pyruvate, 1 mM non-essential amino acids, 2 mM L-gluatamine, 50 units/ml streptomycin, and 50 μM Beta-mercaptoethanol, all purchased from Gibco/Invitrogen (Carlsbad, Calif., USA). After 4 days, the cultured cells were washed with PBS and surface stained with CD4 and intracellular staining was performed for IL10 and IFN-γ.
as §3

[5] = test system: siLP CX3CR1hi Mφ and CD103+ DCs; assay: Oral gavage; IL10, TNF-α and CX3CR1 expression in siLP CX3CR1hi Mφ and CD103+ DCs by flow cytometry; format: in vivo, mouse
Protocol: as §1, §2
Intracellular cytokine staining: Cells were incubated with PMA (50 ng/ml) (Sigma Co., St. Luis, Mo., USA) plus ionomycin (1 μg/ml) (Sigma Co., St. Luis, Mo., USA) in the presence of golgi plug (BD Biosciences, San Jose, USA) for 5 hours at 37° C. followed by surface staining with fluorochrome conjugated antibodies and then intracellular staining of IL10, TNFα, IFNγ, and IL17A was performed by fixation and permeabilization according to manufacturer's protocol BD Cytofix/Cytoperm™ kit. […]

[6] = test system: CD4+IL10+IFN-γ+ Tr1 cells; assay: Oral gavage; frequency of CD4+IL10+IFN-γ+ Tr1 cells and IL17A+ CD4+ T cells in siLP and PLN; format: in vivo, mouse
Protocol: as §1, §2, §4, §3
We now tested if CP can elicit such regulatory T cells in vivo. NOD mice were orally gavaged twice at 9th and 10th week of age with 10 μg CP or vehicle as a control; two weeks post CP treatment, siLP and the PLN were harvested and the frequency of CD4+IL10+IFN-γ+ Tr1 cells was measured.

[7] = test system: IL27-p28; assay: qPCR of IL27-p28 in sorted siLP MNPs after oral gavage; format: in vivo, mouse; settings: two days after treatment, with respect to vehicle
Protocol: as §3
qPCR: Total RNA was isolated from sorted siLP MNP using the RNeasy® Micro kit Oaten, Chatsworth, Calif., USA). cDNA was made from total RNA using iSCRIPT™ cDNA synthesis kit (Bio-Rad Laboratories, Hercules, Calif.). IL-27 gene expression was measured using IL-27 TactMan® Gene Expression Assay (Life technologies, Grand Island, N.Y., USA) and CFX96™ Real-Time PCR detection system (Bio-Rad Laboratories, Hercules, Calif., USA). Gene expression was normalized to GAPDH.

[8] = CX3CR1gfp/+ mice, oral gavage, 24 hours after feeding, vs vehicle
[9] = NOD mice, 10 μg at 9th and 10th week, two weeks post treatment

Compound: O=C(Nc1cccnc1)N1CCC(Cc2cccc(Oc3ccc(C(F)(F)F)cn3)c2)CC1 [PF3845]
- frequency of CX3CR1hi Mφ in siLP [1, 8]: increase in the frequency

Compound: COc1cc(CNC(=O)CCCC/C=C/C(C)C)ccc1O [CP, Capsaicin]
- protection from T1D by transferred CD4+ T cells [2]: significantly higher protection from T1D
- frequency of CX3CR1+ Mφ in the MLN ([3]; 3 days after feeding 10 μg): but not in MLN
- frequency of CX3CR1+ Mφ in the PLN ([3]; 3 days after feeding 10 μg): significant VR1-dependent increase in the frequency
- frequency of CX3CR1+ Mφ in the PLN ([3]; NOD mice, 3 days post oral gavage 10 μg): significant increase in the frequency
- expression of IL10 in CD4+ T cells ([4]; MNPs sorted 24 hours after treatment, co-culture 1:1, four days): significant increase in the expression of IL10
- induction of CD4+ T cells expressing both IL10 and IFN-γ (Tr1) ([4]; MNPs sorted 24 hours after treatment, co-culture 1:1, four days, IL27RA+/+ T cells): significant increase in the induction
- increase in frequency of CD4+ IL10+ IFN-γ+ T cells ([4]; T cells derived from IL27RA−/− mice): completely abrogated
- frequency and number of CX3CR1lo cells in siLP ([1]; CX3CR1gfp/+ mice, oral gavage 10 μg, 24 hours, vs vehicle): did not affect the frequency and number
- frequency of CX3CR1hi Mφ in siLP [1, 8]: significantly increased the frequency
- frequency of CX3CR1hi Mφ in siLP ([1]; CX3CR1gfp/gfp mice (lack functional CX3CR1), oral gavage 10 μg, 24 h): no changes in the frequency
- frequency of CX3CR1hi Mφ in siLP ([1]; NOD mice, oral administration): increases the frequency
- production of TNF-α in CX3CR1hi Mφ ([5]; 24 hours after treatment, vs controls): decreased
- expression of CX3CR1 on CX3CR1hi Mφ ([5]; CX3CR1gfp/+ mice, vs vehicle): significantly increased expression of CX3CR1
- IL10 production in CD103+ DCs ([5]; IL10-GFP reporter mice, oral gavage 10 μg, 24 hrs): modest but statistically significant increase in IL10 production
- production of IL10 in CX3CR1hi Mφ ([5]; IL10 GFP-reporter mice, 24 hours after treatment, vs controls): significant increase in the production of IL10
- elicitation of Tr1 cells in PLN ([6]; CX3CR1gfp/gfp mice (no functional CX3CR1)): does not elicit Tr1 cells
- Tr1 cell elicitation by IL27RA genotype ([6]; IL27RA −/−, +/− and +/+ mice): gene dose-dependence of Tr1 cell elicitation
- dependence of elicited Tr1 cells on IL27 signaling ([6]; IL27RA+/+ vs IL27RA−/− mice, PLN): require the presence of functional IL27-IL27R signaling
- frequency of Tr1 cells in PLN [6, 9]: expansion of Tr1 cells
- frequency of Tr1 cells in siLP [6, 9]: expansion of Tr1 cells
- frequency of IL17A+ CD4+ T cells in the PLN ([6]; NOD mice, oral administration): significant decrease in the frequency
- level of IL27-p28 in the MNPs [7]: five fold increase
